Measurements as given in patent publication US20160317430A1, “COSMETIC USE OF AN EXTRACT OF GYMNEMA SYLVESTRE” (LABORATOIRES CLARINS, priority 2013, published 2016).

System: cytochrome C oxidase, complex IV of the respiratory chain
Assay: Cytochrome C oxidase activity in human keratinocytes in culture, with or without H2O2 oxidative stress
Format: cell-based
Conditions: H2O2 alone (positive control), 24 h
Method: The keratinocyte cultures were established using skin from human foreskins collected at circumcisions and were amplified in KGM2 medium (Keratinocyte Growth Medium, KGN2, clonetics) supplemented with insulin, EGF and pituitary extract. The tests were conducted on keratinocytes at the 3rd passage. The cells were inoculated in multi-well dishes at a rate of 1×10^6 cells. After 24 hours of incubation at 37° C. (5% CO2), the cells in the exponential growth phase were treated with Gymnema sylvestre extract at the concentrations of 0.125% and 0.25% alone or in the presence of H2O2.
After 24 hours of treatment, the cells were sampled and then washed and resuspended in cold PBS. The evaluation of the cytochrome C oxidase activity was then carried out using the analysis kit (Cytochrome C Oxidase Assay Kit—Sigma) according to the protocol specified.

## OO [H2O2, hydrogen peroxide]
  % (cytochrome C oxidase activity vs negative control): −34%
  ATP mean (Table II, cytochrome C oxidase activity test): 0.87 nmol/10^7 cells
